This assay concerns glycogen synthase. Kind of assay: Glycogen Synthase (GS) Assay, in vitro activation of glycogen synthase. The following applies: compound concentration needed to stimulate 200% of the enzyme activity; coupled pyruvate kinase/lactate dehydrogenase assay, absorbance at 340 nm, 37° C. Type of assay: biochemical. How it is done:
Twelve μl per well of substrate solution containing glycogen (4.32 mg/ml), 21.6 mM UDP-glucose, 21.6 mM phospho(enol)pyruvate and 2.7 mM NADH in 30 mM glycylglycine, pH 7.3 buffer is added into a polystyrene 384-well assay plate (BD Biosciences). Compound solution (8 μl/well) at various concentrations (0-57 μM) in 30 mM glycylglycine, pH 7.3, 40 mM KCl, 20 mM MgCl2 plus 9.2% DMSO are added to the assay plate (columns 5-24). Enzyme solution (12 μl/well) containing glycogen synthase (16.88 μg/ml), pyruvate kinase (0.27 mg/ml), lactate dehydrogenase (0.27 mg/ml) in 50 mM Tris-HCl, pH 8.0, 27 mM DTT and bovine serum albumin (BSA, 0.2 mg/ml) is added to the assay plate (columns 3-24). As a blank control, enzyme solution without glycogen synthase is added into the top half wells of columns 1-2. To the bottom half wells of columns 1-2 are added a known activator, glucose 6-phosphate (18.9 mM) in addition to the enzyme solution. The reaction mixture is incubated at 37° C. The assay plate is then read for absorbance at 340 nm on a Tecan Ultra reader every 3 minutes up to a total of 30 minutes.
The enzyme activity (with or without compound) is calculated by the reaction rate and represented by the optical density change (ΔOD) per minute. Percent stimulation of glycogen synthase activity by a compound at various concentrations is calculated by the following formula: % stimulation=100*Rs/Rt,
where Rs is the reaction rate of the enzyme in the presence of compound and Rt is the reaction rate of the enzyme in the absence of compound.
SC2.0 is defined as the compound concentration that is needed to stimulate 200% of the enzyme activity.
Glycogen Synthase (GS) Assay
The following tests were carried out in order to determine the activity of the compounds of formula (I).
Twelve μl per well of substrate solution containing glycogen (4.32 mg/ml), 21.6 mM UDP-glucose, 21.6 mM phospho(enol)pyruvate and 2.7 mM NADH in 30 mM glycylglycine, pH 7.3 buffer was added into a polystyrene 384-well assay plate (BD Biosciences). Compound solution (8 μl/well) at various concentrations (0-57 μM) in 30 mM glycylglycine, pH 7.3, 40 mM KCl, 20 mM MgCl2 plus 9.2% DMSO were added to the assay plate (columns 5-24). Enzyme solution (12 μl/well) containing glycogen synthase (16.88 μg/ml), pyruvate kinase (0.27 mg/ml), lactate dehydrogenase (0.27 mg/ml) in 50 mM Tris-HCl, pH 8.0, 27 mM DTT and bovine serum albumin (BSA, 0.2 mg/ml) was added to the assay plate (columns 3-24). As a blank control, enzyme solution without glycogen synthase was added into the top half wells of columns 1-2. To the bottom half wells of columns 1-2 were added a known activator, glucose 6-phosphate (18.9 mM) in addition to the enzyme solution. The reaction mixture was incubated at 37° C. The assay plate was then read for absorbance at 340 nm on a Tecan Ultra reader every 3 minutes up to a total of 30 minutes.
The enzyme activity (with or without compound) was calculated by the reaction rate and represented by the optical density change (ΔOD) per minute. Percent stimulation of glycogen synthase activity by a compound at various concentrations was calculated by the following formula: % stimulation=100*Rs/Rt, […]
`O=C(O)[C@H]1CCCN1C(=O)c1ccc(COc2ccc(-c3ccccc3)cc2)o1` [1-[5-(Biphenyl-4-yloxymethyl)-furan-2-carbonyl]-L-pyrrolidine-2-carboxylic acid] returned an SC2.0 of 1.4 µM.

As to `O=C(O)c1ccc(COc2ccc(-c3ccccc3)cc2)s1` [5-(Biphenyl-4-yloxymethyl)-thiophene-2-carboxylic acid], the SC2.0 came to 12.7 µM.

For `O=C(O)c1cccc(COc2ccc(-c3ccc(Br)cc3)cc2)c1` [Example 4, 3-(4′-Bromo-biphenyl-4-yloxymethyl)-benzoic acid], the SC2.0 was determined as 3.8 µM.

For `COc1ccc(-c2ccc(OCc3cccc(C(=O)O)c3)cc2)cc1` [Example 7, 3-(4′-Methoxy-biphenyl-4-yloxymethyl)-benzoic acid], the SC2.0 was found to be 9.6 µM.

Consider `O=C(O)c1ccc(COc2cccc(-c3ccccc3)c2)o1` [Example 9, 5-(Biphenyl-3-yloxymethyl)-furan-2-carboxylic acid], for which the SC2.0 worked out at 14.9 µM.

`O=C(O)c1ccc(COc2ccc(-c3ccc(Cl)cc3)cc2)o1` [Example 12, 5-(4′-Chloro-biphenyl-4-yloxymethyl)-furan-2-carboxylic acid] gave an SC2.0 of 0.8 µM.

For the compound `O=C(O)c1ccccc1COc1ccc(-c2ccccc2)cc1Cl` [Example 15, 2-(3-Chloro-biphenyl-4-yloxymethyl)-benzoic acid], the SC2.0 was 10.3 µM.

`O=C(O)c1csc(COc2ccc(-c3ccccc3)cc2Cl)n1` [Example 22, 2-(3-Chloro-biphenyl-4-yloxymethyl)-thiazole-4-carboxylic acid] registered an SC2.0 of 14.9 µM.

In turn, `O=C(O)c1csc(COc2ccc(-c3ccc(Cl)cc3)cc2)n1` [Example 26, 2-(4′-Chloro-biphenyl-4-yloxymethyl)-thiazole-4-carboxylic acid] displayed an SC2.0 of 3.1 µM.

As to `O=C(NC1(C(=O)O)CCCC1)c1ccc(COc2ccc(-c3ccccc3)cc2)o1` [Example 34, 1-{[5-(Biphenyl-4-yloxymethyl)-furan-2-carbonyl]-amino}-cyclopentane carboxylic acid], the SC2.0 worked out at 16.3 µM.

For the origin of these results see US7842825B2, “Biaryloxymethylarenecarboxylic acids as glycogen synthase activator” (Hoffmann-La Roche Inc., priority 2003, dated 2010).
